Reference: US4659859A, “2-alkoxy-1-alkoxy phosphoryl dichlorides” (priority 1986, dated 1987)
Several values for one entry are separate records, joined by “and”; a condition that tells them apart may be missing. Identical values can stand only once. Counter-ions that a name gives are not always drawn.

Experiments:
[1] = system: spontaneously hypertensive rats (SHR); test: Blood pressure and heart rate in spontaneously hypertensive rats, femoral artery cannula; format: in vivo, rat; details: for Blood pressure: femoral artery cannula
Source text: (§1) The above compounds are also active in lowering the blood pressure of spontaneously hypertensive rats (SHR). […] In the table, column 1 gives the compound used, column 2 the dose level, column 3, the route of administration, column 4, number of rats, column 5, the time of blood pressure measurement, column 6, blood pressure in mm (Hg), and column 7, heart rate.
**B.P. measured by femoral artery cannula.

P388 leukemia = test: Antitumor activity vs P388 leukemia; design: species or system mice; details: mouse, in vivo
Source text: (§2) Compounds according to formula II above are also active against transplanted tumors in mice. Table II which follows gives the results of testing (d,1)-2-ethoxy-1-[(2-trimethylaminoethoxy)phosphinyloxy]-eicosane,hydroxy inner salt, (A), against several such tumors. In the table, column 1 gives the name of the tumor, column 2 the dosage levels, column 3 toxic deaths, column 4, the percent tumor growth inhibition and column 5, the dosage schedule or regimen. Ten mice were given each dosage I.P. and a group of 20 mice used as controls.

M-5 ovarian carcinoma = test: Antitumor activity vs M-5 ovarian carcinoma; design: species or system mice; details: mouse, in vivo
Source text: as §2

[2] = system: spontaneously hypertensive rats (SHR); test: Blood pressure and heart rate in spontaneously hypertensive rats, tail cuff method; format: in vivo, rat; details: for Blood pressure: tail cuff
Source text: as §1
*B.P. measured by tail cuff method.

[3] = system: X-5563 plasma cell myeloma; test: Oral dosing vs X-5563 plasma cell myeloma; format: in vivo, mice
CA755 mammary carcinoma = test: Antitumor activity vs CA755 mammary carcinoma; design: species or system mice; details: mouse, in vivo
Source text: as §2

[4] = system: release of arachidonic acid from membrane phospholipids (rabbit neutrophils); test: Inhibition of release of arachidonic acid from membrane phospholipids in glycogen-elicited rabbit neutrophils; format: cell-based; details: A-23187 0.5 mcg/ml activation, 5 minutes pretreatment at 37° C.
Protocol: In this procedure, glycogen-elicited rabbit neutrophils are labelled with ^14 C-arachidonic acid by incubation for one hour at 37° C. and followed by treatment with the compound under test at 37° C. for 5 minutes. The cells were then activated by addition of 0.5 mcg/ml of A-23187 (an ionophore) for 5 minutes. Cellular metabolism was stopped; the membrane lipids extracted; and the extracted lipids chromatographed on TLC plates. Assays were conducted for free ^14 C-arachidonic acid and hydroxy^14 C-eicosatetraenoic acid (HETES) using a radiochromatogram scanner.

6C3 HED lymphosarcoma = test: Antitumor activity vs 6C3 HED lymphosarcoma in mice; format: in vivo; details: daily for 8 days after inoculation
Source text: as §2

C3 H mammary carcinoma = test: Antitumor activity vs C3 H mammary carcinoma; design: species or system mice; details: mouse, in vivo
Source text: as §2

[5] = system: X-5563 plasma cell myeloma; test: Antitumor activity vs X-5563 plasma cell myeloma in mice; format: in vivo; details: daily for 10 days with 3 day delay
Source text: as §2
Table III gives the results obtained by comparing the activity of the racemate (d,1)-2-ethoxy-1-[(2-trimethylaminoethoxy)phosphinyloxy]eicosane,hydroxy inner salt (A), the L-(-)enantiomer (B) and the D-(+)enantiomer (C) versus X-5563, a plasma cell myeloma.

C-6 colon carcinoma = test: Antitumor activity vs C-6 colon carcinoma in mice; format: in vivo; details: daily for 10 days, 5 day delay
Source text: as §2

[6] = 3 mg/kg I.V., 0 hours (baseline)
[7] = 10 mg/kg I.V., 0 hours (baseline)
[8] = 30 mg/kg S.C., 0 hours (baseline), 8 rats
[9] = 50 mg/kg S.C., 0 hours (baseline), 8 rats

Work on CCCCCCCCCCCCCCCCCCC(COP(=O)([O-])OCC[N+](C)(C)C)OCC (racemic) [Compound 3, (d,l)-2-Ethoxy-1-[(2-trimethylaminoethoxy)phosphinyloxy]eicosane, hydroxy inner salt] yielded a Heart Rate [1, 6] of 335 beats/min, a Blood pressure [1, 6] of 195 mm Hg and a Heart Rate ([1]; 3 mg/kg I.V., 1.0 hours) of 395 beats/min. For the same molecule, the Blood pressure ([1]; 3 mg/kg I.V., 1.0 hours) was 173 mm Hg, the Heart Rate ([1]; 3 mg/kg I.V., .08 hours) was 280 beats/min and the Blood pressure ([1]; 3 mg/kg I.V., .08 hours) was 105 mm Hg. It also gave a Heart Rate ([1]; 3 mg/kg I.V., .25 hours) of 337 beats/min, a Blood pressure ([1]; 3 mg/kg I.V., .25 hours) of 140 mm Hg and a Heart Rate ([1]; 3 mg/kg I.V., .5 hours) of 370 beats/min. For the same molecule, the Blood pressure ([1]; 3 mg/kg I.V., .5 hours) was 153 mm Hg, the Heart Rate [1, 7] was 345 beats/min and the Blood pressure [1, 7] was 198 mm Hg. For the same molecule, the Heart Rate ([1]; 10 mg/kg I.V., 1.0 hours) was 365 beats/min, the Blood pressure ([1]; 10 mg/kg I.V., 1.0 hours) was 154 mm Hg and the Heart Rate ([1]; 10 mg/kg I.V., .08 hours) was 442 beats/min. For the same molecule, the Blood pressure ([1]; 10 mg/kg I.V., .08 hours) was 78 mm Hg, the Heart Rate ([1]; 10 mg/kg I.V., .25 hours) was 420 beats/min and the Blood pressure ([1]; 10 mg/kg I.V., .25 hours) was 140 mm Hg. The Heart Rate ([1]; 10 mg/kg I.V., .5 hours) was 395 beats/min, the Blood pressure ([1]; 10 mg/kg I.V., .5 hours) was 153 mm Hg and the “activity against P388 leukemia” value (P388 leukemia) was “no activity”. For the same molecule, the “activity against M-5 ovarian carcinoma” value (M-5 ovarian carcinoma) was “no activity”, the Blood pressure ([2]; 5 mg/kg S.C., 0 hours (baseline), 5 rats) was 188 mm Hg and the Blood pressure ([2]; 5 mg/kg S.C., 1 hour, 5 rats) was 177 mm Hg. The Blood pressure ([2]; 5 mg/kg S.C., 2 hours, 5 rats) was 159 mm Hg, the Blood pressure ([2]; 5 mg/kg S.C., 3 hours, 5 rats) was 155 mm Hg and the Blood pressure ([2]; 5 mg/kg S.C., 4 hours, 5 rats) was 154 mm Hg. The Blood pressure ([2]; 5 mg/kg S.C., 5 hours, 5 rats) was 156 mm Hg, the Heart Rate [2, 8] was 335 beats/min and the Blood pressure [2, 8] was 188 mm Hg. For the same molecule, the Heart Rate ([2]; 30 mg/kg S.C., 1 hour, 8 rats) was 328 beats/min, the Blood pressure ([2]; 30 mg/kg S.C., 1 hour, 8 rats) was 177 mm Hg and the Heart Rate ([2]; 30 mg/kg S.C., 2 hours, 8 rats) was 349 beats/min. For the same molecule, the Blood pressure ([2]; 30 mg/kg S.C., 2 hours, 8 rats) was 151 mm Hg, the Heart Rate ([2]; 30 mg/kg S.C., 3 hours, 8 rats) was 346 beats/min and the Blood pressure ([2]; 30 mg/kg S.C., 3 hours, 8 rats) was 147 mm Hg. The Heart Rate ([2]; 30 mg/kg S.C., 4 hours, 8 rats) was 347 beats/min, the Blood pressure ([2]; 30 mg/kg S.C., 4 hours, 8 rats) was 156 mm Hg and the Heart Rate ([2]; 30 mg/kg S.C., 5 hours, 8 rats) was 341 beats/min. For the same molecule, the Blood pressure ([2]; 30 mg/kg S.C., 5 hours, 8 rats) was 151 mm Hg, the Heart Rate [2, 9] was 345 beats/min and the Blood pressure [2, 9] was 190 mm Hg. The Heart Rate ([2]; 50 mg/kg S.C., 1 hour, 8 rats) was 352 beats/min, the Blood pressure ([2]; 50 mg/kg S.C., 1 hour, 8 rats) was 177 mm Hg and the Heart Rate ([2]; 50 mg/kg S.C., 2 hours, 8 rats) was 355 beats/min. It also gave a Blood pressure ([2]; 50 mg/kg S.C., 2 hours, 8 rats) of 149 mm Hg, a Heart Rate ([2]; 50 mg/kg S.C., 3 hours, 8 rats) of 367 beats/min and a Blood pressure ([2]; 50 mg/kg S.C., 3 hours, 8 rats) of 143 mm Hg. For the same molecule, the Heart Rate ([2]; 50 mg/kg S.C., 4 hours, 8 rats) was 357 beats/min, the Blood pressure ([2]; 50 mg/kg S.C., 4 hours, 8 rats) was 139 mm Hg and the Heart Rate ([2]; 50 mg/kg S.C., 5 hours, 8 rats) was 359 beats/min. For the same molecule, the Blood pressure ([2]; 50 mg/kg S.C., 5 hours, 8 rats) was 129 mm Hg, the “hypotensive effects in SHR (in words)” value ([2]; administered subcutaneously, various dose levels) was “hypotensive effects” and the “inhibition of tumor growth” value ([3]; 25 mg/kg orally daily for 10 days after inoculation) was 10%. The “inhibition of tumor growth” value ([3]; 35 mg/kg orally daily for 10 days after inoculation) was 47%, the “inhibition of tumor growth” value ([3]; 50 mg/kg orally daily for 10 days after inoculation) was 56% and the toxicity ([3]; 50, 35 and 25 mg/kg orally daily for 10 days) was “minimal toxicity”. The toxicity ([3]; 50 and 70 mg/kg dose levels orally) was “toxic”, the “activity against CA755 mammary carcinoma” value (CA755 mammary carcinoma) was “no activity” and the “inhibition of the release of arachidonic acid (AA) from phospholipids” value [4] was 69%. For the same molecule, the “inhibition of the total production of free AA and HETES” value [4] was 97%, the “Percent inhibition of Tumor growth” value (6C3 HED lymphosarcoma; 12 mg/kg I.P.) was 10% and the Toxic deaths (6C3 HED lymphosarcoma; 12 mg/kg I.P.) was 0/10. The “Percent inhibition of Tumor growth” value (6C3 HED lymphosarcoma; 17 mg/kg I.P.) was 15%, the Toxic deaths (6C3 HED lymphosarcoma; 17 mg/kg I.P.) was 0/10 and the “Percent inhibition of Tumor growth” value (6C3 HED lymphosarcoma; 25 mg/kg I.P.) was 48%. The Toxic deaths (6C3 HED lymphosarcoma; 25 mg/kg I.P.) was 0/10, the “Percent inhibition of Tumor growth” value (6C3 HED lymphosarcoma; 35 mg/kg I.P.) was 85% and the Toxic deaths (6C3 HED lymphosarcoma; 35 mg/kg I.P.) was 0/10. For the same molecule, the “activity against C3 H mammary carcinoma” value (C3 H mammary carcinoma) was “no activity”, the “Percent inhibition of Tumor growth” value ([5]; 12 mg/kg) was 37% and the Toxic deaths ([5]; 12 mg/kg) was 0/10. For the same molecule, the Toxic deaths ([5]; 17 mg/kg) was 0/10, the “Percent inhibition of Tumor growth” value ([5]; 17 mg/kg, listed as (d,1)-A) was 65% and the “Percent inhibition of Tumor growth” value ([5]; 17 mg/kg, listed as A) was 65% and 70%. The “Percent inhibition of Tumor growth” value ([5]; 25 mg/kg, listed as (d,1)-A) was 77%, the Toxic deaths ([5]; 25 mg/kg, listed as (d,1)-A) was 0/10 and the “Percent inhibition of Tumor growth” value ([5]; 25 mg/kg, listed as A) was 77% and 86%. For the same molecule, the Toxic deaths ([5]; 25 mg/kg, listed as A) was 0/10 and 2/10, the “Percent inhibition of Tumor growth” value ([5]; 35 mg/kg, listed as (d,1)-A) was “Toxic” and the Toxic deaths ([5]; 35 mg/kg, listed as (d,1)-A) was 4/10. For the same molecule, the “Percent inhibition of Tumor growth” value ([5]; 35 mg/kg, listed as A) was “toxic”, the Toxic deaths ([5]; 35 mg/kg, listed as A) was 4/10 and 5/10 and the Toxic deaths ([5]; 50 mg/kg) was 10/10. The “Percent inhibition of Tumor growth” value ([5]; 50 mg/kg, listed as (d,1)-A) was “Toxic”, the “Percent inhibition of Tumor growth” value ([5]; 50 mg/kg, listed as A) was “toxic” and the “Percent inhibition of Tumor growth” value ([5]; 70 mg/kg) was “toxic”. For the same molecule, the Toxic deaths ([5]; 70 mg/kg) was 10/10, the “Percent inhibition of Tumor growth” value (C-6 colon carcinoma; 12 mg/kg I.P.) was 23% and the Toxic deaths (C-6 colon carcinoma; 12 mg/kg I.P.) was 0/10. For the same molecule, the “Percent inhibition of Tumor growth” value (C-6 colon carcinoma; 17 mg/kg I.P.) was 56%, the Toxic deaths (C-6 colon carcinoma; 17 mg/kg I.P.) was 1/10 and the “Percent inhibition of Tumor growth” value (C-6 colon carcinoma; 25 mg/kg I.P.) was 24%. For the same molecule, the Toxic deaths (C-6 colon carcinoma; 25 mg/kg I.P.) was 0/10, the “Percent inhibition of Tumor growth” value (C-6 colon carcinoma; 35 mg/kg I.P.) was “Toxic” and the Toxic deaths (C-6 colon carcinoma; 35 mg/kg I.P.) was 5/10.
